# Source: US6124323A, “4-substituted piperidine analogs and their use as subtype selective NMDA receptor antagonists” (Warner-Lambert Company, priority 1998, dated 2000)
# pIC50: −log10 of the molar value. Where a name gives a salt, the structure may show the parent alone.
# How the values were obtained:
# [1] = molecular target: T1, NMDA receptor subunits 1A/2A (Rattus norvegicus, UniProt P35439+Q00959); assay: Electrophysiological assay at NMDA receptor subunits expressed in Xenopus oocytes, 1A/2A; format: cell-based; conditions: glutamate 100 μm and glycine 1-100 μm
# T1 construct: expressed in transfected cells; host or cells: Xenopus laevis oocytes (cRNA injection; clones from Dr. P. H. Seeburg)
# In short: (§1)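 Two-electrode voltage clamp of Xenopus oocytes injected with rat NR1A plus NR2A, 2B or 2C cRNA (1:1), recorded 3–21 days post-injection in Ringer's, pH 7.4. Currents evoked by glutamate (100 μm) with glycine (1–100 μm); antagonist applied by bath perfusion at rising concentrations, IC50 from logistic fit or linear regression for incomplete curves.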
# [2] = molecular target: T2, NMDA receptor subunits 1A/2B (Rattus norvegicus, UniProt P35439+Q00960); assay: Electrophysiological assay at NMDA receptor subunits expressed in Xenopus oocytes, 1A/2B; format: cell-based; conditions: Xenopus oocytes; glutamate 100 μm and glycine 1-100 μm; read-out: Subunits IC50, 1A/2B
# T2 construct: expressed in transfected cells; host or cells: Xenopus laevis oocytes (cRNA injection; clones from Dr. P. H. Seeburg)
# In short: as §1
# [3] = molecular target: T3, NMDA receptor subunits 1A/2C (Rattus norvegicus, UniProt P35439+Q00961); assay: Electrophysiological assay at NMDA receptor subunits expressed in Xenopus oocytes, 1A/2C; format: cell-based; conditions: Xenopus oocytes; glutamate 100 μm and glycine 1-100 μm; read-out: Subunits IC50, 1A/2C
# T3 construct: expressed in transfected cells; host or cells: Xenopus laevis oocytes (cRNA injection; clones from Dr. P. H. Seeburg)
# In short: as §1
# [4] = tested on: Maximal Electroshock-induced Seizures; assay: Maximal electroshock-induced seizures (MES); format: in vivo; conditions: Mus musculus; mice; 50 mA, 60 pulses/sec, 1 sec
# Text: Seizures were induced by application of current (50 mA, 60 pulses/sec, 0.8 sec pulse width, 1 sec duration, d.c.) through saline-coated corneal electrodes using a Ugo Basile ECT device (Model 7801). […] A tonic seizure was defined as a hindlimb extension in excess of 90 degrees from the plane of the body.
# T2 sequence (Q00960 27-1482, other chains not shown): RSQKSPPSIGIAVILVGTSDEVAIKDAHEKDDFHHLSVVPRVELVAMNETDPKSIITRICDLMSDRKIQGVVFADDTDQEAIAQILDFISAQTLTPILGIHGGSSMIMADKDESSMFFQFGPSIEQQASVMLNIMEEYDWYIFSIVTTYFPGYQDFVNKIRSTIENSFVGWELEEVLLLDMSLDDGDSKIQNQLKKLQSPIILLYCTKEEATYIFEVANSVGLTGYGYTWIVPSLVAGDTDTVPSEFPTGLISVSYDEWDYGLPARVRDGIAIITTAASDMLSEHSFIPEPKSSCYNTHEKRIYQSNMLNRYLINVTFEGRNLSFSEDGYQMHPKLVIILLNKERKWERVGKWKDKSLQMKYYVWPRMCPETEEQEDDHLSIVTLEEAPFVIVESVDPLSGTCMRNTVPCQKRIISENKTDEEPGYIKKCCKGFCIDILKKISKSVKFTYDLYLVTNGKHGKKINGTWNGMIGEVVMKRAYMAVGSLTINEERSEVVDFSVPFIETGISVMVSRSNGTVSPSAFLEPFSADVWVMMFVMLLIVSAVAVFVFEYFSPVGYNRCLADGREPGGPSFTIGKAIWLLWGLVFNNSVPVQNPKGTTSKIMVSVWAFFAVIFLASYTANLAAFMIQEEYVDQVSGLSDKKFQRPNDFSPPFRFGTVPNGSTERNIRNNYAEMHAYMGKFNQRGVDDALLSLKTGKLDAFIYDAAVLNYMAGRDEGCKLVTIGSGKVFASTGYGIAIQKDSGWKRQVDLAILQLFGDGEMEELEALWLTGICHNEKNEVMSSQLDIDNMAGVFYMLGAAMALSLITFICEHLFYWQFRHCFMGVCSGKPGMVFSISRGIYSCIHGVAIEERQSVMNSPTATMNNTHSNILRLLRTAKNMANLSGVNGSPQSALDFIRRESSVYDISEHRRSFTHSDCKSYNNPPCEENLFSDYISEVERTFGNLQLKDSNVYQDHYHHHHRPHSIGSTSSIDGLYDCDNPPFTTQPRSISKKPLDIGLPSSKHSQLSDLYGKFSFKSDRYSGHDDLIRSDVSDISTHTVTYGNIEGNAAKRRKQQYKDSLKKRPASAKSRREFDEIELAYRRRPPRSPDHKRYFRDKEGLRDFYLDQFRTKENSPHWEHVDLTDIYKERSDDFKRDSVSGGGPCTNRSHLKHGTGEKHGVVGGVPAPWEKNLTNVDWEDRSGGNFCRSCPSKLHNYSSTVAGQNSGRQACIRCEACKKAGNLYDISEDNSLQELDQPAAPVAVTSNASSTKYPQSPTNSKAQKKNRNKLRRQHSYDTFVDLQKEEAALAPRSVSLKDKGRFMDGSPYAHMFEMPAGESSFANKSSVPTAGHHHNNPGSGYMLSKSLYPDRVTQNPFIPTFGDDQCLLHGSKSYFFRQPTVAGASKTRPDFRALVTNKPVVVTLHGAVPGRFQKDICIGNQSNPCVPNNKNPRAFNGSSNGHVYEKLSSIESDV
# T1 sequence (Q00959 20-1464 limits assumed, other chains not shown): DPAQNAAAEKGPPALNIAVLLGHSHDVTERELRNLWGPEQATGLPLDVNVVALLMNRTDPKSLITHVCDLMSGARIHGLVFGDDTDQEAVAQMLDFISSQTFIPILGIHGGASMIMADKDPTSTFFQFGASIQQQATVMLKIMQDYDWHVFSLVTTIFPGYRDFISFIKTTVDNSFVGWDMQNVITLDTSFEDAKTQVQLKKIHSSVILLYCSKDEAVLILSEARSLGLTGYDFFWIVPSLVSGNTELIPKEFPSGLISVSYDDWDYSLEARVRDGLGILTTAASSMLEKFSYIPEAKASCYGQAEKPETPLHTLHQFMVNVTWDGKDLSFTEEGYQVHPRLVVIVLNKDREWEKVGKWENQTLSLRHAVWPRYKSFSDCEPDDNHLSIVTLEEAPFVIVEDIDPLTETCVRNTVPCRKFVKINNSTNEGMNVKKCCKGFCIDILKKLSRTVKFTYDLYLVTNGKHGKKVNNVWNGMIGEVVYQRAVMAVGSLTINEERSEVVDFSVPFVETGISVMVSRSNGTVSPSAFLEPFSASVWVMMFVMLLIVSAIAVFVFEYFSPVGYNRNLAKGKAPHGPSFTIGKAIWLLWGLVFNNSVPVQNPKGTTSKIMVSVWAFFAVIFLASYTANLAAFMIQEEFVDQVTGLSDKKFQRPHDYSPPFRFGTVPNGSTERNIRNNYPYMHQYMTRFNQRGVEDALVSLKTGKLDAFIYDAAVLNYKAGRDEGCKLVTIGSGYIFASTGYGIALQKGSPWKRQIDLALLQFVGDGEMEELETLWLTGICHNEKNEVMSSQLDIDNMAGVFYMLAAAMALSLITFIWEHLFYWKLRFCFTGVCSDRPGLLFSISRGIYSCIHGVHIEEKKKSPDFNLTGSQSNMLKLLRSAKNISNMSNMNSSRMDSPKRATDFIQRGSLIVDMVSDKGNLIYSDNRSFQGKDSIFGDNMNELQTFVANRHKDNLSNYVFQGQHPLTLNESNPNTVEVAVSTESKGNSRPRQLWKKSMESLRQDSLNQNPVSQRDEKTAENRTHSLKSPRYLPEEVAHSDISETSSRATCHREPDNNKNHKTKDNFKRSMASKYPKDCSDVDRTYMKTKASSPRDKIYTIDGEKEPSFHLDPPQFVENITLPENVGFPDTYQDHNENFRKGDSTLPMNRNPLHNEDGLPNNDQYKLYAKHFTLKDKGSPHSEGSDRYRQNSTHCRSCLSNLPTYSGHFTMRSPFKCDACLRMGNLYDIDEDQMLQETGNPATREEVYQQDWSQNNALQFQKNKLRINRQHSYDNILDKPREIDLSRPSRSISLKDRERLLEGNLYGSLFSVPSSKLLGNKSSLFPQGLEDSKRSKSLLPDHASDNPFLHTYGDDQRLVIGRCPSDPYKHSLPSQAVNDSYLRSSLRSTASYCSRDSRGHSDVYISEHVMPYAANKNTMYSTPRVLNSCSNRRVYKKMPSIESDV
# T3 sequence (Q00961 20-1237, other chains not shown): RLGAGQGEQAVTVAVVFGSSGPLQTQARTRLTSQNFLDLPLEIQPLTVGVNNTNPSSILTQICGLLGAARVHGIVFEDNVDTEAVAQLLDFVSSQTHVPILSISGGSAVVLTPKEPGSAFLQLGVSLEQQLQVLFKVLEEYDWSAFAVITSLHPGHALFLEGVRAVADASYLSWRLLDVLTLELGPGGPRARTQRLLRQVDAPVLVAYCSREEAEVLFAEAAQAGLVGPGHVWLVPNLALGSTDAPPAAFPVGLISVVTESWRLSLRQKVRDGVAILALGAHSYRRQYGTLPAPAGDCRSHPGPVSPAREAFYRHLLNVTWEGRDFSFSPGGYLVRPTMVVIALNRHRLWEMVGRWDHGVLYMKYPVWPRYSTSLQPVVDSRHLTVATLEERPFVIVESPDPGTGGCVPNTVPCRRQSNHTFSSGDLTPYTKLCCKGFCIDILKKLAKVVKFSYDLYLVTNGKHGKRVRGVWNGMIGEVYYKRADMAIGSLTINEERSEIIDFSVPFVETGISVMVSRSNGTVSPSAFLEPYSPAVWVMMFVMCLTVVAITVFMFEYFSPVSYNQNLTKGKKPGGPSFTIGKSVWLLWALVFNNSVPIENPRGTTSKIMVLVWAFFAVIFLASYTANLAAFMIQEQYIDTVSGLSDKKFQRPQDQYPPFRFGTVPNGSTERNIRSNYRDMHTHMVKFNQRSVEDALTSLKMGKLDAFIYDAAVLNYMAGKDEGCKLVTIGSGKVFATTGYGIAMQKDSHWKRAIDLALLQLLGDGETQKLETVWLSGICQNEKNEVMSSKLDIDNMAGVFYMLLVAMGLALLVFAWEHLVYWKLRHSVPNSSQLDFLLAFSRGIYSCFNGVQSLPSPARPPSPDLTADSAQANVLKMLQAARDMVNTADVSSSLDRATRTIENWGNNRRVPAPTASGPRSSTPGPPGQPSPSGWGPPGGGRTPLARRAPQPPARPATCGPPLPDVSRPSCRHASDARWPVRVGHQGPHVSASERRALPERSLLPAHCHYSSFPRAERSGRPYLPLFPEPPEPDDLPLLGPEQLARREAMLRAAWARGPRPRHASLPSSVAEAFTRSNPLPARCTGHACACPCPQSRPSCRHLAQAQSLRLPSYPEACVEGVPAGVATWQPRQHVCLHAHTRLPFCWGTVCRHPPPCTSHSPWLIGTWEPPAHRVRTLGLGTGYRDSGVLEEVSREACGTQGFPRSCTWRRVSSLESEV
Structure (SMILES),pIC50 [1],pIC50 [2],pIC50 [3],ED50 [4] [mg/kg]
"OC1(Cc2ccccc2)CCN(CCOc2ccccc2)CC1 [Ex. 47, 4-Benzyl-4-hydroxy-1-(2-phenoxyethyl)piperidine hydrochloride]",4.07,5.52,< 4.00,3.2
"O=c1[nH]c2cccc(OCCN3CCC(Cc4ccccc4)CC3)c2[nH]1 [Ex. 55, 4-Benzyl-1-[2-(2-oxobenzimidazol-4-oxy)ethyl]piperidine]",4.30,6.96,< 4.00,6
"O=c1[nH]c2ccc(OCCN3CCC(Cc4ccccc4)CC3)cc2[nH]c1=O [Ex. 58, 4-Benzyl-1-[2-(2,3-dioxoquinoxalin-6-oxy)ethyl]piperidine]",4.60,7.00,< 4.00,5.1
"O=c1[nH]c2ccc(OCCN3CCC(Cc4ccccc4)CC3)cc2[nH]1 [Ex. 59, 4-Benzyl-1-[2-(2-oxobenzimidazol-5-oxy)ethyl]piperidine]",4.12,7.62,< 4.00,1
"O=[N+]([O-])c1ccccc1OCCN1CCC(Cc2ccc(Cl)cc2)CC1 [Ex. 73, 4-(4-Chlorobenzyl)-1-[2-(2-nitrophenoxy)ethyl]piperidine]",4.52,5.10,4.00,8
"Nc1ccccc1OCCN1CCC(Cc2ccc(Cl)cc2)CC1 [Ex. 74, 4-(4-Chlorobenzyl)-1-[2-(2-aminophenoxy)ethyl]piperidine]",4.22,5.52,< 4.00,3.5
"O=c1[nH]c2cccc(OCCN3CCC(Cc4ccc(Cl)cc4)CC3)c2[nH]1 [Ex. 77, 4-(4-Chlorobenzyl)-1-[2-(2-oxobenzimidazol-4-oxy)ethyl]piperidine]",4.30,6.96,< 4.00,6
"Cl.Oc1ccc(OCCN2CCC(Cc3ccccc3)CC2)cc1 [Ex. 99, 1-[2-(4-hydroxyphenoxy)ethyl]-4-benzylpiperidine hydrochloride]",< 3.52,7.52,< 3.52,2
"Oc1ccc(OCCN2CCC(Cc3ccc(Cl)cc3)CC2)cc1 [Ex. 101, hydrochloride]",4.26,7.30,3.62,3
"Oc1ccc(OCCN2CCC(Cc3ccc(F)cc3)CC2)cc1 [Ex. 102, 1-[2-(4-Hydroxyphenoxy)ethyl]-4-(4-fluorobenzyl)piperidine hydrochloride]",4.22,7.70,3.54,3
"Fc1ccc(OCCN2CCC(Cc3ccccc3)CC2)cc1 [Ex. 103, 4-Benzyl-1-(2-(4-fluorophenoxy)ethyl)piperidine hydrochloride]",4.02,6.00,< 3.52,3
Oc1ccc(CC2CCN(CCOc3ccc(F)cc3)CC2)cc1 [Ex. 104],4.30,6.70,< 3.52,3
"Oc1ccc(OCCN2CCC(Cc3cccc(F)c3)CC2)cc1 [Ex. 112, 1-[2-(4-Hydroxyphenoxy)ethyl]-4-(3-fluorobenzylpiperidine hydrochloride]",4.52,7.10,3.55,4.5
"Cc1ccc(CC2CCN(CCOc3ccc(O)cc3)CC2)cc1 [Ex. 115, 1-[2-(4-Hydroxyphenoxy)ethyl]-4-(4-methylbenzyl)piperidine hydrochloride]",4.12,7.52,3.66,0.7
"Cc1ccc(CC2CCN(CCOc3ccc(F)cc3)CC2)cc1 [Ex. 116, 1-(2-(4-Fluorophenoxy)ethyl)-4-(4-methylbenzyl)piperidine hydrochloride]",4.15,5.35,3.82,3
"CCc1ccc(CC2CCN(CCOc3ccc(O)cc3)CC2)cc1 [Ex. 120, hydrochloride]",4.26,7.70,< 3.52,2
"COc1ccc(CC2CCN(CCOc3ccc(O)cc3)CC2)cc1 [Ex. 121, 1-[2-(4-Hydroxyphenoxy)ethyl]-4-(4-methoxybenzyl)piperidine hydrochloride]",3.96,7.30,< 3.52,2.5

Structure (SMILES),pIC50 [1],pIC50 [2],pIC50 [3],ED50 [4] [mg/kg]
"Oc1ccc(OCCN2CCC(Cc3ccc(F)c(F)c3)CC2)cc1 [Ex. 122, 1-[2-(4-Hydroxyphenoxy)ethyl]-4-(3,4-difluorobenzyl)piperidine hydrochloride]",4.26,6.74,3.55,5
"Oc1ccc(OCCN2CCC(O)(Cc3ccc(F)cc3)CC2)cc1 [Ex. 123, 1-[2-(4-Hydroxyphenoxy)ethyl]-4-(4-fluorobenzyl)-4-hydroxy-piperidine hydrochloride]",4.30,7.15,< 3.52,3
"Cl.Cl.Oc1ccc(OCCN2CCC(Cc3ccccn3)CC2)cc1 [Ex. 125, 1-(2-(4-Hydroxyphenoxy)ethyl)-4-(2-picolyl)piperidine dihydrochloride]",4.12,5.48,< 3.52,15
"Oc1ccc(OCCN2CCC(Cc3ccccc3F)CC2)cc1 [Ex. 128, 1-[2-(4-Hydroxyphenoxy)ethyl]-4-(2-fluorobenzyl)piperidine hydrochloride]",3.96,7.40,< 3.52,1
"Oc1ccc(OCCN2CCC(Cc3ccc(C(F)(F)F)cc3)CC2)cc1 [Ex. 129, 1-[2-(4-Hydroxyphenoxy)ethyl]-4-(4-trifluorobenzyl)piperidine hydrochloride]",3.77,7.30,3.77,2
"CC(C)c1ccc(CC2CCN(CCOc3ccc(O)cc3)CC2)cc1 [Ex. 131, 1-[2-(4-Hydroxyphenoxy)ethyl]-4-(4-isopropylbenzyl)piperidine hydrochloride]",4.30,7.30,< 3.52,1.5
"CC(C)(C)c1ccc(CC2CCN(CCOc3ccc(O)cc3)CC2)cc1 [Ex. 132, 1-[2-(4-Hydroxyphenoxy)ethyl]-4-(4-t-butylbenzyl)piperidine hydrochloride]",4.64,6.80,3.64,1
"Cc1ccc(CC2CCN(CCOc3ccc(F)cc3)CC2)c(F)c1 [Ex. 133, 4-(2-Fluoro-4-methylbenzyl)-1-(2-(4-fluorophenoxy)ethyl)piperidine hydrochloride]",4.10,6.68,3.82,2.5
"Cc1ccc(CC2CCN(CCOc3ccc(O)cc3)CC2)c(F)c1 [Ex. 134, 4-(2-Fluoro-4-methylbenzyl)-1-(2-(4-hydroxyphenoxy)ethyl)piperidine hydrochloride]",4.22,7.52,3.85,1.5
"CN(CCN1CCC(Cc2ccccc2)CC1)c1ccccc1 [Ex. 143, 4-Benzyl-1-((2-(N-methyl-N-phenyl)amino)ethyl)piperidine dihydrochloride]",3.72,6.40,< 3.52,0.5
"Cl.Oc1ccc(OCCN2CCC(Cc3c(F)cccc3F)CC2)cc1 [Ex. 146, 1-[2-(4-Hydroxyphenoxy)ethyl]-4-(2,6-difluorobenzyl)piperidine hydrochloride]",4.52,8.00,3.80,0.8
"Cc1ccc(CC2CCN(CCOc3ccc(O)c(C)c3)CC2)c(F)c1 [Ex. 147, 1-[2-(4-Hydroxy-3-methylphenoxy)ethyl]-4-(2-fluoro-4-methylbenzyl)piperidine hydrochloride]",4.40,7.00,3.68,3
"Cc1ccc(CC2CCN(CCOc3ccc(O)c(F)c3)CC2)c(F)c1 [Ex. 149, 1-[2-(4-Hydroxy-3-fluorophenoxy)ethyl]-4-(2-fluoro-4-methylbenzyl)piperidine hydrochloride]",4.30,7.40,3.85,2
"Cc1ccc(CC2CCN(CCOc3ccc(O)c(F)c3)CC2)cc1 [Ex. 151, 1-[2-(4-Hydroxy-3-fluorophenoxy)ethyl]-4-(4-methylbenzyl)piperidine hydrochloride]",4.28,7.70,4.00,2.5
"Cc1ccc(CC2(O)CCN(CCOc3ccc(O)cc3)CC2)cc1.Cl [Ex. 154, 1-[2-(4-Hydroxyphenoxy)ethyl]-4-hydroxy-4-(4-methylbenzyl)piperidine hydrochloride]",3.60,7.70,3.64,1.5
"Cl.Oc1ccc(SCCN2CCC(Cc3ccc(F)cc3)CC2)cc1 [Ex. 165, 4-(4-Fluorobenzyl)-1-(2-(4-hydroxythiophenoxy)ethyl)piperidine hydrochloride]",4.19,7.30,3.52,0.5
"COc1ccc(C2CCN(CCCCc3ccccc3)CC2)cc1 [Ex. 166, 4-(4-Methoxyphenyl)-1-(4-phenylbutyl)piperidine]",3.57,3.77,< 3.52,0.7
